Assays:
[1] = Highest frequency of moderate liver toxicity observed during clinical trials, expressed as a percentage. [column '% BIOL' in source]; settings: human
[2] = Highest frequency of acute liver toxicity observed during clinical trials, expressed as a percentage. [column '% AIGUE' in source]; settings: human
[3] = Times to onset, minimal and maximal, observed in the indexed observations. [column 'DELAI' in source]; settings: human
[4] = human, serum
[5] = human, serum; remark: listed apart in the source
[6] = human
[7] = human; remark: listed apart in the source
[8] = human; remark: listed apart in the source
[9] = human, serum, 4383 h
[10] = human; remark: listed apart in the source
[11] = human; remark: listed apart in the source
[12] = human; remark: listed apart in the source
[13] = human; remark: listed apart in the source
[14] = human; remark: listed apart in the source
[15] = human; remark: listed apart in the source
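Wherever Hepatotoxicity (association with vascular disease) is given: count of indexed literature references reporting vascular liver injury in humans, e.g. peliosis hepatitis, hepatic veno-occlusive disease or Budd-Chiari syndrome.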
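Wherever Hepatotoxicity (benign tumour) is given: value is a count of indexed literature references citing a benign tumour confirmed by histopathology.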
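Wherever Hepatotoxicity (choleostasis) is given: human cholestatic liver injury, shown by histopathology or by peak ALT or AST elevation over alkaline phosphatase ratio below 2, value counts indexed literature reports.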
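Wherever Hepatotoxicity (chronic liver disease) is given: chronic liver injury confirmed by histopathology or persistently raised serum aminotransferase activity beyond 6 months, value given as the count of indexed literature references.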
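Wherever Hepatotoxicity (cirrhosis) is given: value is a count of indexed literature references reporting cirrhosis confirmed by histopathology.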
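Wherever Hepatotoxicity (cytolytic) is given: human cytolytic liver injury, shown by histopathology or by a ratio above 5 of peak ALT or AST elevation to alkaline phosphatase elevation, value counts indexed references.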
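Wherever Hepatotoxicity (granulomatous hepatitis) is given: value is a count of indexed literature references reporting granulomatous liver disease confirmed by histopathology.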
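Wherever Hepatotoxicity (malignant tumour) is given: malignant tumour confirmed by histopathology, value gives the count of indexed literature references reporting it.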
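Wherever Hepatotoxicity (severe hepatitis) is given: human clinical data: severe hepatitis, meaning potentially life-threatening liver failure or clinically observed cases, the value counts how many indexed literature references report it.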
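Wherever Hepatotoxicity (steatosis) is given: steatosis confirmed by histopathology, value is the count of indexed references.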

CC(C)[N+](C)(CCC(C(N)=O)(c1ccccc1)c1ccccc1)C(C)C [ISOPROPAMIDE]
Hepatotoxicity (moderate) [1]: 0%
Hepatotoxicity (acute) [2]: 0%
Hepatotoxicity (time to onset) [3]: 3 months
Hepatotoxicity (moderate) [4]: 0
Hepatotoxicity (acute) [5]: 1
Hepatotoxicity (cytolytic) [6]: 1
Hepatotoxicity (choleostasis) [7]: 0
Hepatotoxicity (severe hepatitis) [8]: 0
Hepatotoxicity (chronic liver disease) [9]: 0
Hepatotoxicity (cirrhosis) [10]: 0
Hepatotoxicity (granulomatous hepatitis) [11]: 0
Hepatotoxicity (association with vascular disease) [12]: 0
Hepatotoxicity (steatosis) [13]: 0
Hepatotoxicity (malignant tumour) [14]: 0
Hepatotoxicity (benign tumour) [15]: 0

CO[C@@H]1[C@@H](O[C@@H]2O[C@H](C)[C@@H](O[C@H]3C[C@@](C)(O)[C@@H](OC(=O)CC(C)C)[C@H](C)O3)[C@H](N(C)C)[C@H]2O)[C@@H](CC=O)C[C@@H](C)[C@@H](O)/C=C/C=C/C[C@@H](C)OC(=O)C[C@H]1OC(C)=O [JOSAMYCIN]
Hepatotoxicity (moderate) [1]: 20%
Hepatotoxicity (acute) [2]: 0%
Hepatotoxicity (time to onset) [3]: 5 days - 2 weeks
Hepatotoxicity (moderate) [4]: 5
Hepatotoxicity (acute) [5]: 9
Hepatotoxicity (cytolytic) [6]: 6
Hepatotoxicity (choleostasis) [7]: 5
Hepatotoxicity (severe hepatitis) [8]: 0
Hepatotoxicity (chronic liver disease) [9]: 0
Hepatotoxicity (cirrhosis) [10]: 0
Hepatotoxicity (granulomatous hepatitis) [11]: 0
Hepatotoxicity (association with vascular disease) [12]: 0
Hepatotoxicity (steatosis) [13]: 0
Hepatotoxicity (malignant tumour) [14]: 0
Hepatotoxicity (benign tumour) [15]: 0

O=C(c1ccccc1)c1ccc2n1CCC2C(=O)O (stereo not given) [KETOROLAC]
Hepatotoxicity (moderate) [1]: 32%
Hepatotoxicity (acute) [2]: 1%
Hepatotoxicity (time to onset) [3]: 1 day - 10 days
Hepatotoxicity (moderate) [4]: 1
Hepatotoxicity (acute) [5]: 1
Hepatotoxicity (cytolytic) [6]: 1
Hepatotoxicity (choleostasis) [7]: 1
Hepatotoxicity (severe hepatitis) [8]: 0
Hepatotoxicity (chronic liver disease) [9]: 0
Hepatotoxicity (cirrhosis) [10]: 0
Hepatotoxicity (granulomatous hepatitis) [11]: 0
Hepatotoxicity (association with vascular disease) [12]: 0
Hepatotoxicity (steatosis) [13]: 0
Hepatotoxicity (malignant tumour) [14]: 0
Hepatotoxicity (benign tumour) [15]: 0

N[C@@H](Cc1ccc(O)c(O)c1)C(=O)O [LEVODOPA]
Hepatotoxicity (moderate) [1]: 9%
Hepatotoxicity (acute) [2]: 3.3%
Hepatotoxicity (time to onset) [3]: < 3 months
Hepatotoxicity (moderate) [4]: 1
Hepatotoxicity (acute) [5]: 4
Hepatotoxicity (cytolytic) [6]: 0
Hepatotoxicity (choleostasis) [7]: 1
Hepatotoxicity (severe hepatitis) [8]: 0
Hepatotoxicity (chronic liver disease) [9]: 0
Hepatotoxicity (cirrhosis) [10]: 0
Hepatotoxicity (granulomatous hepatitis) [11]: 0
Hepatotoxicity (association with vascular disease) [12]: 0
Hepatotoxicity (steatosis) [13]: 1
Hepatotoxicity (malignant tumour) [14]: 0
Hepatotoxicity (benign tumour) [15]: 0

C[C@H]1COc2c(N3CCN(C)CC3)c(F)cc3c(=O)c(C(=O)O)cn1c23.C[C@H]1COc2c(N3CCN(C)CC3)c(F)cc3c(=O)c(C(=O)O)cn1c23.O [LEVOFLOXACIN]
Hepatotoxicity (moderate) [1]: 30%
Hepatotoxicity (acute) [2]: 0%
Hepatotoxicity (time to onset) [3]: 2 days - 3 weeks
Hepatotoxicity (moderate) [4]: 17
Hepatotoxicity (acute) [5]: 7
Hepatotoxicity (cytolytic) [6]: 6
Hepatotoxicity (choleostasis) [7]: 2
Hepatotoxicity (severe hepatitis) [8]: 5
Hepatotoxicity (chronic liver disease) [9]: 0
Hepatotoxicity (cirrhosis) [10]: 0
Hepatotoxicity (granulomatous hepatitis) [11]: 0
Hepatotoxicity (association with vascular disease) [12]: 0
Hepatotoxicity (steatosis) [13]: 0
Hepatotoxicity (malignant tumour) [14]: 0
Hepatotoxicity (benign tumour) [15]: 0

COc1ccc2c(c1)N(C[C@H](C)CN(C)C)c1ccccc1S2 [LEVOMEPROMAZINE]
Hepatotoxicity (moderate) [1]: 4.5%
Hepatotoxicity (acute) [2]: 2.7%
Hepatotoxicity (time to onset) [3]: 1.2 months - 2 months
Hepatotoxicity (moderate) [4]: 2
Hepatotoxicity (acute) [5]: 4
Hepatotoxicity (cytolytic) [6]: 1
Hepatotoxicity (choleostasis) [7]: 3
Hepatotoxicity (severe hepatitis) [8]: 0
Hepatotoxicity (chronic liver disease) [9]: 0
Hepatotoxicity (cirrhosis) [10]: 0
Hepatotoxicity (granulomatous hepatitis) [11]: 0
Hepatotoxicity (association with vascular disease) [12]: 0
Hepatotoxicity (steatosis) [13]: 0
Hepatotoxicity (malignant tumour) [14]: 0
Hepatotoxicity (benign tumour) [15]: 0

O=C(O)Cc1cn(-c2ccccc2)nc1-c1ccc(Cl)cc1 [LONAZOLAC]
Hepatotoxicity (moderate) [1]: 0%
Hepatotoxicity (acute) [2]: 1.3%
Hepatotoxicity (time to onset) [3]: 1 month
Hepatotoxicity (moderate) [4]: 0
Hepatotoxicity (acute) [5]: 1
Hepatotoxicity (cytolytic) [6]: 0
Hepatotoxicity (choleostasis) [7]: 0
Hepatotoxicity (severe hepatitis) [8]: 0
Hepatotoxicity (chronic liver disease) [9]: 0
Hepatotoxicity (cirrhosis) [10]: 0
Hepatotoxicity (granulomatous hepatitis) [11]: 0
Hepatotoxicity (association with vascular disease) [12]: 0
Hepatotoxicity (steatosis) [13]: 0
Hepatotoxicity (malignant tumour) [14]: 0
Hepatotoxicity (benign tumour) [15]: 0

CN1CCN(C2=Nc3ccccc3Oc3ccc(Cl)cc32)CC1 [LOXAPINE]
Hepatotoxicity (moderate) [1]: 0%
Hepatotoxicity (acute) [2]: 0%
Hepatotoxicity (time to onset) [3]: 1 week - 3 weeks
Hepatotoxicity (moderate) [4]: 2
Hepatotoxicity (acute) [5]: 1
Hepatotoxicity (cytolytic) [6]: 0
Hepatotoxicity (choleostasis) [7]: 1
Hepatotoxicity (severe hepatitis) [8]: 0
Hepatotoxicity (chronic liver disease) [9]: 0
Hepatotoxicity (cirrhosis) [10]: 0
Hepatotoxicity (granulomatous hepatitis) [11]: 0
Hepatotoxicity (association with vascular disease) [12]: 0
Hepatotoxicity (steatosis) [13]: 0
Hepatotoxicity (malignant tumour) [14]: 0
Hepatotoxicity (benign tumour) [15]: 0

CN(C)[C@@H]1C(O)=C(C(=O)NCNCCCC[C@H](N)C(=O)O)C(=O)[C@@]2(O)C(O)=C3C(=O)c4c(O)cccc4[C@@](C)(O)[C@H]3C[C@@H]12 [LYMECYCLINE]
Hepatotoxicity (moderate) [1]: 0%
Hepatotoxicity (acute) [2]: 0%
Hepatotoxicity (time to onset) [3]: 2.4 years
Hepatotoxicity (moderate) [4]: 0
Hepatotoxicity (acute) [5]: 1
Hepatotoxicity (cytolytic) [6]: 1
Hepatotoxicity (choleostasis) [7]: 0
Hepatotoxicity (severe hepatitis) [8]: 0
Hepatotoxicity (chronic liver disease) [9]: 0
Hepatotoxicity (cirrhosis) [10]: 0
Hepatotoxicity (granulomatous hepatitis) [11]: 0
Hepatotoxicity (association with vascular disease) [12]: 0
Hepatotoxicity (steatosis) [13]: 0
Hepatotoxicity (malignant tumour) [14]: 0
Hepatotoxicity (benign tumour) [15]: 0

CN(C)CC(Oc1ccccc1)Oc1ccccc1 [MEDIFOXAMINE]
Hepatotoxicity (moderate) [1]: 0%
Hepatotoxicity (acute) [2]: 0%
Hepatotoxicity (time to onset) [3]: 6 days
Hepatotoxicity (moderate) [4]: 0
Hepatotoxicity (acute) [5]: 1
Hepatotoxicity (cytolytic) [6]: 1
Hepatotoxicity (choleostasis) [7]: 0
Hepatotoxicity (severe hepatitis) [8]: 2
Hepatotoxicity (chronic liver disease) [9]: 0
Hepatotoxicity (cirrhosis) [10]: 0
Hepatotoxicity (granulomatous hepatitis) [11]: 0
Hepatotoxicity (association with vascular disease) [12]: 0
Hepatotoxicity (steatosis) [13]: 0
Hepatotoxicity (malignant tumour) [14]: 0
Hepatotoxicity (benign tumour) [15]: 0

CCCC(C)(COC(N)=O)COC(N)=O [MEPROBAMATE]
Hepatotoxicity (moderate) [1]: 0%
Hepatotoxicity (acute) [2]: 0%
Hepatotoxicity (time to onset) [3]: 2 weeks - 6 months
Hepatotoxicity (moderate) [4]: 0
Hepatotoxicity (acute) [5]: 2
Hepatotoxicity (cytolytic) [6]: 0
Hepatotoxicity (choleostasis) [7]: 1
Hepatotoxicity (severe hepatitis) [8]: 0
Hepatotoxicity (chronic liver disease) [9]: 0
Hepatotoxicity (cirrhosis) [10]: 0
Hepatotoxicity (granulomatous hepatitis) [11]: 0
Hepatotoxicity (association with vascular disease) [12]: 0
Hepatotoxicity (steatosis) [13]: 0
Hepatotoxicity (malignant tumour) [14]: 0
Hepatotoxicity (benign tumour) [15]: 0

Source: ChEMBL document CHEMBL3137667, “[Drug-induced liver injury; fourteenth updated edition of the bibliographic database of liver injuries and related drugs]” (Gastroenterol Clin Biol, 2004)
